The numbers were not newly measured in US20250312371A1, “CROSS-LINKED POLYMERIC CHELATORS COMPOSITIONS AND USE THEREOF” (THE UNIVERSITY OF KANSAS, priority 2021, published 2025), which cites them from elsewhere.

Molecules are shown by their SMILES.

For the molecule `O=C(N[C@H]1COC(=O)[C@@H](NC(=O)c2cccc(O)c2O)COC(=O)[C@@H](NC(=O)c2cccc(O)c2O)COC1=O)c1cccc(O)c1O` [Enterobactin], for the setting “Fe(III)”, the “relative iron binding constant” value was 35.5. In addition, the “Log K” value (iron chelation) is recorded as 52.
